According to patent publication US20250145585A1, “HETEROCYCLIC INHIBITORS OF IGF-1R FOR TREATMENT OF DISEASE” (HORIZON THERAPEUTICS IRELAND DAC, priority 2023, published 2025):
Counter-ions that a name gives are not always drawn.

Biological target: T1, IGF-1R (Homo sapiens, UniProt P08069)
T1 construct: expressed in transfected cells
Assay: Example B-2: IGF-1R Assay (PathHunter cell lines, EC80 agonist challenge, chemiluminescent detection)
Assay type: cell-based
Conditions: PathHunter cells, compound 60 minutes at 37° C., EC80 agonist 3 hours; read-out: IC50, Biological Activity against IGF-1R (Table B2)
Procedure: PathHunter cell lines were expanded from freezer stocks according to standard procedures. Cells were seeded in a total volume of 20 μL into white walled, 384-well microplates and incubated for the appropriate time prior to testing.
Cells are pre-incubated with compound followed by EC80 agonist challenge as follows: • R. 1. Intermediate dilution of sample stocks was performed to generate 5× sample in assay buffer. • 2. 5 μL of 5× sample was added to cells and incubated at 37° C. for 60 minutes. Vehicle concentration was 1%. • 3. 5 IL of 6× EC80 agonist in assay buffer was added to the cells and incubated at room temperature for 3 hours.
Assay signal was generated through a single addition of 12.5 or 15 μL (50% v/v) of PathHunter Detection reagent cocktail for agonist and antagonist assays respectively, followed by a one hour incubation at room temperature. Microplates were read following signal generation with a PerkinElmer Envision™ instrument for chemilumine-scent signal detection.
Compound activity was analyzed using CBIS data analysis suite (ChemInnovation, CA). Percentage inhibition was calculated using the following formula: % Inhibition=100%×(1−(mean RLU of test sample−mean RLU of vehicle control)/(mean RLU of EC80 control−mean RLU of vehicle control)). The activity for representative examples of the invention is shown in the following table, wherein A: IC50≤500 nM; B: 500 nM<IC50≤2 μM; C: 2 μM<IC50≤10 μM; D: IC50>10 μM.

T1 sequence (P08069 31-1367): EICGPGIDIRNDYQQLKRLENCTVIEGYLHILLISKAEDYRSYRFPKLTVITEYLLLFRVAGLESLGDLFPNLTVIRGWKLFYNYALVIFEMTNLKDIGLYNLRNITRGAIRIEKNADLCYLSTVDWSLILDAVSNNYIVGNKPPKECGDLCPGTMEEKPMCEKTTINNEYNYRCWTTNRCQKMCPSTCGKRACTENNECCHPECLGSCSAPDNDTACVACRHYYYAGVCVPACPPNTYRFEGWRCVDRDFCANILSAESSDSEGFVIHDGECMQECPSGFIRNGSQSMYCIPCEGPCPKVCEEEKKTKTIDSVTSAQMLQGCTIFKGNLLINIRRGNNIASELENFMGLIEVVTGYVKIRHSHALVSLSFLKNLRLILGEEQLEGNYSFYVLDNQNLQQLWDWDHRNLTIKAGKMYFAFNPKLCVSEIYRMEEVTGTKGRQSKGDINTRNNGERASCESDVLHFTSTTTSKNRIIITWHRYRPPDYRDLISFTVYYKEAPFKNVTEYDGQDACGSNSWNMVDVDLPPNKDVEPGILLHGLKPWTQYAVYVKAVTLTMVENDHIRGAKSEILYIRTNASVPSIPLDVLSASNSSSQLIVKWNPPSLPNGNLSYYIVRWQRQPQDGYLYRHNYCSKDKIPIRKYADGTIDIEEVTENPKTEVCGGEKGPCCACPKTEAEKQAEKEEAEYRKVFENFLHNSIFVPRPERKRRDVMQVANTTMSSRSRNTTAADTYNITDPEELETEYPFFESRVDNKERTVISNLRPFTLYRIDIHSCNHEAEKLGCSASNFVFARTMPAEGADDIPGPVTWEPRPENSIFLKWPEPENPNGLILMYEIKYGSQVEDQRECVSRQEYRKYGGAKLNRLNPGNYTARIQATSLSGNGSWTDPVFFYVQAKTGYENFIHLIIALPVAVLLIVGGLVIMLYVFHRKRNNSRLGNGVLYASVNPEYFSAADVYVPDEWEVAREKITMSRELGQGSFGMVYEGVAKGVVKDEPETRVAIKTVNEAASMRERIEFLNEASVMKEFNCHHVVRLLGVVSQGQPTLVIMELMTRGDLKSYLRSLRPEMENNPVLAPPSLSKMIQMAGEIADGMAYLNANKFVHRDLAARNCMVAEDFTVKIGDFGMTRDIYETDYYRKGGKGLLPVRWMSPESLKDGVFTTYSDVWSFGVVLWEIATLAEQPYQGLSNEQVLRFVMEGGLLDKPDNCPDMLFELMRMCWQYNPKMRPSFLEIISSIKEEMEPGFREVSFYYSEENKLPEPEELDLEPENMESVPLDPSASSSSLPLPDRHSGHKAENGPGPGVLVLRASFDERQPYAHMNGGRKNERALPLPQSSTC

Row | Structure (SMILES) | IC50 [nM]
1 | C[C@H]1COc2c(CN3C(=O)N(c4ccc(C5(C(F)(F)F)CC5)cc4)C(=O)C3(C)C)ccnc2N1 [Compound 26, (S)-5,5-dimethyl-1-((3-methyl-3,4-dihydro-2H-pyrido[3,2-b][1,4]oxazin-8-yl)methyl)-3-(4-(1-(trifluoromethyl)cyclopropyl)phenyl) imidazolidine-2,4-dione] | ≤ 500
2 | C[C@@H]1CNc2nccc(CN3C(=O)N(c4ccc(C5(C(F)(F)F)CC5)cc4)C(=O)C3(C)C)c2O1 [Compound 27, (R)-5,5-dimethyl-1-((2-methyl-3,4-dihydro-2H-pyrido[3,2-b][1,4]oxazin-8-yl)methyl)-3-(4-(1-(trifluoromethyl)cyclopropyl)phenyl) imidazolidine-2,4-dione] | ≤ 500
3 | C[C@H]1CNc2nccc(CN3C(=O)N(c4ccc(C5(C(F)(F)F)CC5)cc4)C(=O)C3(C)C)c2O1 [Compound 28, (S)-5,5-dimethyl-1-((2-methyl-3,4-dihydro-2H-pyrido[3,2-b][1,4]oxazin-8-yl)methyl)-3-(4-(1-(trifluoromethyl)cyclopropyl)phenyl) imidazolidine-2,4-dione] | ≤ 500
4 | CC(C)(C#N)c1ccc(N2C(=O)N(Cc3ccnc4c3CC(=O)N4)C(C)(C)C2=O)cc1 [Compound 29, 2-(4-(4,4-dimethyl-2,5-dioxo-3-((2-oxo-2,3-dihydro-1H-pyrrolo[2,3-b]pyridin-4-yl)methyl)imidazolidin-1-yl)phenyl)-2-methylpropanenitrile] | ≤ 500
5 | CC1(C)C(=O)N(c2ccc(C3(C(F)(F)F)CCC3)cc2)C(=O)N1Cc1ccnc2c1CC(=O)N2 [Compound 30, 5,5-dimethyl-1-((2-oxo-2,3-dihydro-1H-pyrrolo[2,3-b]pyridin-4-yl)methyl)-3-(4-(1-(trifluoromethyl)cyclobutyl)phenyl)imidazolidine-2,4-dione hydrochloride] | ≤ 500
6 | CC1C(=O)Nc2nccc(CN3C(=O)N(c4ccc(C5(C(F)(F)F)CC5)cc4)C(=O)C3(C)C)c21 (centres unmarked) [Compound 31, 5,5-dimethyl-1-((3-methyl-2-oxo-2,3-dihydro-1H-pyrrolo[2,3-b]pyridin-4-yl)methyl)-3-(4-(1-(trifluoromethyl)cyclopropyl)phenyl) imidazolidine-2,4-dione] | ≤ 500
7 | CC1(C)C(=O)N(c2ccc(C34CC(C3)C4)cc2)C(=O)N1Cc1ccnc2c1CC(=O)N2 [Compound 32, 3-(4-(bicyclo[1.1.1]pentan-1-yl)phenyl)-5,5-dimethyl-1-((2-oxo-2,3-dihydro-1H-pyrrolo[2,3-b]pyridin-4-yl)methyl)imidazolidine-2,4-dione] | ≤ 500
8 | CC1(C)C(=O)N(c2ccc(C3(C(F)(F)F)CC3)cc2)C(=O)N1Cc1ccnc2c1CCN2 [Compound 33, 1-((2,3-dihydro-1H-pyrrolo[2,3-b]pyridin-4-yl)methyl)-5,5-dimethyl-3-(4-(1-(trifluoromethyl)cyclopropyl)phenyl) imidazolidine-2,4-dione] | ≤ 500
9 | CC1Cc2c(CN3C(=O)N(c4ccc(C5(C(F)(F)F)CC5)cc4)C(=O)C3(C)C)ccnc2N1 (centres unmarked) [Compound 34, 5,5-dimethyl-1-((2-methyl-2,3-dihydro-1H-pyrrolo[2,3-b]pyridin-4-yl)methyl)-3-(4-(1-(trifluoromethyl)cyclopropyl)phenyl) imidazolidine-2,4-dione] | ≤ 500
10 | CC1(C)COc2cc(N3C(=O)N(Cc4ccnc5c4CC(=O)N5)C(C)(C)C3=O)ccc21 [Compound 35, 3-(3,3-dimethyl-2,3-dihydrobenzofuran-6-yl)-5,5-dimethyl-1-((2-oxo-2,3-dihydro-1H-pyrrolo[2,3-b]pyridin-4-yl)methyl)imidazolidine-2,4-dione] | ≤ 500
11 | CC(C)(C)c1ccc(N2C(=O)N(Cc3ccnc4c3CC(=O)N4)C(C)(C)C2=O)cc1 [Compound 36, 3-(4-(tert-butyl)phenyl)-5,5-dimethyl-1-((2-oxo-2,3-dihydro-1H-pyrrolo[2,3-b]pyridin-4-yl)methyl)imidazolidine-2,4-dione] | ≤ 500
